One experiment concerns the target T1, Adenosine receptor A3 (Homo sapiens, UniProt P0DMS8).
T1 sequence (P0DMS8 whole entry): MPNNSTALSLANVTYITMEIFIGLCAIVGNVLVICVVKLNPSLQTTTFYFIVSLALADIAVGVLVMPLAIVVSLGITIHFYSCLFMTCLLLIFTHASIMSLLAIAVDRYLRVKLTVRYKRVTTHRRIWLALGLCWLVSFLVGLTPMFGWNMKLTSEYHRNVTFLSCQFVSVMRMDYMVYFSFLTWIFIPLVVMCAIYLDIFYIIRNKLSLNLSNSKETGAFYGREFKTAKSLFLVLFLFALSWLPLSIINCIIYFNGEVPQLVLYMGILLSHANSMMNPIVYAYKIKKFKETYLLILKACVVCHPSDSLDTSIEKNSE

In a further experiment the target is Adenosine receptor A2a (Homo sapiens, UniProt P29274).
Sequence of Adenosine receptor A2a (P29274 whole entry): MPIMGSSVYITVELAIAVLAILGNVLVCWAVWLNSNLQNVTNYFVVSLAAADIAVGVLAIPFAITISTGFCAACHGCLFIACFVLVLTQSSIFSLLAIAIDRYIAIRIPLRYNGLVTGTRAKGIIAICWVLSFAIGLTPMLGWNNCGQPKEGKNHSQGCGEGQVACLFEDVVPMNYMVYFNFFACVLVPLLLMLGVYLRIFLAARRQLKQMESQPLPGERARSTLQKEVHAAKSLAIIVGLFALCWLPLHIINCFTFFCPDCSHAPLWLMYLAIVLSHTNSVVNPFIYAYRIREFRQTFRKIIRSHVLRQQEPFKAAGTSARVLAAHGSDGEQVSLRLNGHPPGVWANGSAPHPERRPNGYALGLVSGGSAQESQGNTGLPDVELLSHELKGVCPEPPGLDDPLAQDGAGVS

Drawing on BindingDB's records for doi:10.1007/pl00005131 (UniversitÄT WÜRzburg, 1998), this text covers Ki for four compounds.

The pKi is −log10 of the Ki, conventionally taken in molar units. A higher pKi goes with a low Ki.

Structures are written as SMILES. pKi: −log10 of the molar value.

For `OC[C@H]1O[C@@H](n2cnc3c(NC4CCCC4)ncnc32)[C@H](O)[C@@H]1O`, the pKi on Adenosine receptor A3 is 7.37; at Adenosine receptor A2a it was 6.10. `Nc1nc2ccc(Cl)cc2c2nc(-c3ccco3)nn12` gave a pKi on Adenosine receptor A3 of 7.29. Turning to `CNC(=O)[C@H]1O[C@@H](n2cnc3c(NCc4ccc(N)c(I)c4)ncnc32)[C@H](O)[C@@H]1O`, the pKi on Adenosine receptor A2a was 6.33. As to `CNC(=O)[C@H]1O[C@@H](n2cnc3c(NCc4ccc(N)cc4)ncnc32)[C@H](O)[C@@H]1O` [AB-MECA], the pKi at Adenosine receptor A3 is 7.67.
